The series in a line: solubility and pH-dependent separation of the carbenoxolone/chlorhexidine complex. It is filed as physicochemical.

As to `[H]/N=C(\N/C(=N/[H])NCCCCCCNC(=N)NC(=N)Nc1ccc(Cl)cc1)Nc1ccc(Cl)cc1` [chlorhexidine], the “behaviour of the complex suspension at high pH” value (pH 9.0 or more) is given as “can be separated by filtration”. For the same compound, the “behaviour of the complex suspension at low pH” value (pH less than 3.5 / 3.5 or less) is “will remain in solution”.

(Values after patent publication EP0396317B1, “Pharmaceutical composition” (priority 1989, dated 1990).)
